Test results as given in patent US9587171B2, “Ammonium salts of chelating agents and their use in oil and gas field applications” (AKZO NOBEL CHEMICALS INTERNATIONAL B.V., priority 2010, dated 2017).

Assay: Descaling efficiency for iron sulfide (FeS) at pH 3.8 as a function of temperature
Type: physicochemical
Conditions: 20° C., 24 hours, FIG. 4
Method: The Parr bomb was placed in an oven at 90° C. The beaker glass was closed with parafilm. After 24 hours at temperature the samples were filtered by a 0.45 micron filter prior to ICP-ES analysis. The descaling efficiency was calculated from the iron concentration in the liquid and the initial amount of FeS.

In the case of `O=C([O-])CC[C@@H](C(=O)[O-])N(CC(=O)[O-])CC(=O)[O-].[Na+].[Na+].[Na+].[Na+]` [sodium GLDA], the “descaling efficiency for FeS at low temperature” value is reported as “dissolved more FeS at low temperature”.
